Test results from the supplement of paper PMC4862054.

Key:
Details in all cases: incubation time: 72 h
[1] = system: BT-474; assay: normalised viability (% of control), CellTiter-Blue; higher = more viable cells (about 100 = DMSO control)
Method in brief: (§1)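 After 72 h on compound-loaded 384-well plates, breast cancer cell lines received 2.5 µl CellTiter-Blue reagent for 2 h at 37 °C. Fluorescence at 560/590 nm was scaled per plate so that vehicle was 100 and a positive kill control was 0. The value stands for normalised viability at a single listed concentration of the series.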

[2] = system: HCC1143; assay: as above
Method in brief: as §1

[3] = system: CAL-148; assay: as above
Method in brief: as §1

[4] = system: BT-549; assay: as above
Method in brief: as §1

[5] = system: SK-BR-3; assay: as above
Method in brief: as §1

[6] = system: CAL-120; assay: as above
Method in brief: as §1

[7] = system: MDA-MB-453; assay: as above
Method in brief: as §1

[8] = system: MDA-MB-231; assay: as above
Method in brief: as §1

[9] = system: MDA-MB-436; assay: as above
Method in brief: as §1

[10] = system: DU-4475; assay: as above
Method in brief: as §1

[11] = system: Hs578T; assay: as above
Method in brief: as §1

[12] = system: BT-474; assay: drug sensitivity score (DSS), CellTiter-Blue viability (DSS (AUC-based score)); higher = stronger viability inhibition; extreme values may be limits of the assay
Method: (§2)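 DSRT with the CellTiter-Blue (resazurin reduction) viability readout, fluorescence 560/590 nm, 72 h incubation. Plates were normalised to DMSO and benzethonium chloride controls. DSS is computed from the area under the fitted dose-response curve (5 or 9 concentrations).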

[13] = system: CAL-148; assay: as above
Method: as §2

[14] = system: BT-549; assay: as above
Method: as §2

[15] = system: MFM-223; assay: as above
Method: as §2

[16] = system: SK-BR-3; assay: as above
Method: as §2

[17] = system: CAL-51; assay: as above
Method: as §2

[18] = system: MDA-MB-436; assay: as above
Method: as §2

[19] = system: DU-4475; assay: as above
Method: as §2

CNCc1ccc(-c2[nH]c3cc(F)cc4c3c2CCNC4=O)cc1 [Rucaparib]
normalised viability [%]
Details	3 nM	10 nM	30 nM	100 nM	1000 nM	10000 nM
[1]	–	108	–	–	111	102
[2]	–	84.3	–	–	94.2	89.9
[3]	90.5	–	87.6	92.6	–	–
[4]	–	100	–	–	107	93.8
[5]	–	97.5	–	–	98.2	78.5
[6]	–	77.4	–	–	81	76.8
[7]	111	–	89.3	110	–	–
[8]	–	99.2	–	–	84.3	75.4
[9]	–	103	–	–	62.6	98.2
[10]	84	–	96.6	83	–	–
[11]	–	112	–	–	107	94.4

Details	drug sensitivity score
[12]	0
[13]	1.96
[14]	0
[15]	1.28
[16]	0
[17]	1.41
[18]	0
[19]	0

CCN(CCCOc1ccc2c(Nc3cc(CC(=O)Nc4cccc(F)c4)[nH]n3)ncnc2c1)CCOP(=O)(O)O [Barasertib]
normalised viability [%]
Details	0.3 nM	1 nM	3 nM	10 nM	100 nM	1000 nM
[1]	–	108	–	–	95.1	92.1
[2]	–	124	–	–	78.4	85.9
[3]	98.4	–	105	39.7	–	–
[4]	–	93.5	–	–	69.1	69.8
[5]	–	107	–	–	82.7	91.9
[6]	–	111	–	–	61.9	51.7
[7]	104	–	92.8	65.6	–	–
[8]	–	110	–	–	75.3	81.1
[9]	–	126	–	–	56.5	88.1
[10]	112	–	105	91.6	–	–
[11]	–	106	–	–	62.6	70.7

Details	drug sensitivity score
[12]	0
[13]	20.5
[14]	5.75
[15]	0
[16]	0
[17]	8.86
[18]	0
[19]	4.75

CC(C)Cn1cnc2c(N)nc3ccccc3c21 [Imiquimod]
normalised viability [%]
Details	3 nM	10 nM	30 nM	100 nM	1000 nM	10000 nM
[1]	–	104	–	–	115	102
[2]	–	96.5	–	–	99.9	94.1
[3]	93.1	–	102	98.5	–	–
[4]	–	94.5	–	–	103	78.7
[5]	–	85	–	–	91.2	115
[6]	–	97.9	–	–	97.2	105
[7]	94.6	–	105	107	–	–
[8]	–	84.8	–	–	89.3	107
[9]	–	94.2	–	–	92.3	96.6
[10]	97	–	101	99	–	–
[11]	–	105	–	–	105	84.9

Details	drug sensitivity score
[12]	0
[13]	0
[14]	0
[15]	0
[16]	0
[17]	0
[18]	0
[19]	0

N[C@@H](CSC(c1ccccc1)(c1ccccc1)c1ccccc1)C(=O)O [S-trityl-L-cysteine]
normalised viability [%]
Details	12 nM	40 nM	120 nM	400 nM	4000 nM	40000 nM
[1]	–	111	–	–	94	25.9
[2]	–	134	–	–	113	58.6
[3]	112	–	114	114	–	–
[4]	–	83.3	–	–	92.2	24
[5]	–	112	–	–	18.3	20.1
[6]	–	110	–	–	42.4	35.2
[7]	91.7	–	80.9	101	–	–
[8]	–	86.8	–	–	27.9	25.9
[9]	–	90.2	–	–	78.6	58.2
[10]	117	–	92.9	102	–	–
[11]	–	114	–	–	36.6	16.8

Details	drug sensitivity score
[12]	4.93
[13]	0
[14]	2.15
[15]	0
[16]	15.5
[17]	0
[18]	4.31
[19]	0

COc1cc2nccc(Oc3ccc(NC(=O)C4(C(=O)Nc5ccc(F)cc5)CC4)cc3)c2cc1OC [Cabozantinib]
normalised viability [%]
Details	0.3 nM	1 nM	3 nM	10 nM	100 nM	1000 nM
[1]	–	125	–	–	119	127
[2]	–	78.9	–	–	87.9	85.5
[3]	94.5	–	103	94.2	–	–
[4]	–	96.3	–	–	108	101
[5]	–	115	–	–	110	109
[6]	–	85.5	–	–	77.8	86.5
[7]	111	–	96.9	108	–	–
[8]	–	86.4	–	–	94.1	87.7
[9]	–	110	–	–	102	97.3
[10]	90.4	–	78	88.4	–	–
[11]	–	128	–	–	102	111

Details	drug sensitivity score
[12]	0
[13]	0.402
[14]	0
[15]	0
[16]	0
[17]	0
[18]	0
[19]	0

CC1(C)NC(=O)N(c2ccc([N+](=O)[O-])c(C(F)(F)F)c2)C1=O [Nilutamide]
normalised viability [%]
Details	3 nM	10 nM	30 nM	100 nM	1000 nM	10000 nM
[1]	–	122	–	–	128	110
[2]	–	89.3	–	–	113	94
[3]	95.5	–	100	97	–	–
[4]	–	97.2	–	–	85.5	97.2
[5]	–	100	–	–	104	132
[6]	–	95.6	–	–	90.1	116
[7]	120	–	87.5	109	–	–
[8]	–	102	–	–	92.2	109
[9]	–	113	–	–	110	102
[10]	88	–	108	90.7	–	–
[11]	–	108	–	–	139	119

Details	drug sensitivity score
[12]	0
[13]	0
[14]	0
[15]	0
[16]	0
[17]	0
[18]	0
[19]	0

C#Cc1cccc(Nc2ncnc3cc(OCCOC)c(OCCOC)cc23)c1 [Erlotinib]
normalised viability [%]
Details	3 nM	10 nM	30 nM	100 nM	1000 nM	10000 nM
[1]	–	98.5	–	–	90.1	51
[2]	–	105	–	–	90.7	68.8
[3]	89.7	–	102	98.2	–	–
[4]	–	117	–	–	106	66.9
[5]	–	91	–	–	91.2	27.6
[6]	–	91.4	–	–	95.1	50.1
[7]	109	–	99.2	98	–	–
[8]	–	95	–	–	120	95.5
[9]	–	108	–	–	83.9	74
[10]	107	–	90.7	86.7	–	–
[11]	–	123	–	–	120	69

Details	drug sensitivity score
[12]	4.23
[13]	5.88
[14]	0
[15]	0
[16]	3.78
[17]	0
[18]	2.82
[19]	0

CC(=O)Nc1ccc(C(=O)Nc2ccccc2N)cc1 [CI-994]
normalised viability [%]
Details	0.3 nM	1 nM	3 nM	10 nM	100 nM	1000 nM
[1]	–	104	–	–	117	97.4
[2]	–	113	–	–	118	101
[3]	104	–	93.9	101	–	–
[4]	–	116	–	–	97	112
[5]	–	103	–	–	97.8	99.4
[6]	–	99.9	–	–	106	88.9
[7]	100	–	100	105	–	–
[8]	–	104	–	–	101	115
[9]	–	98.7	–	–	97.2	94.8
[10]	86	–	81	107	–	–
[11]	–	119	–	–	115	92.5

Details	drug sensitivity score
[12]	0
[13]	0
[14]	0
[15]	0
[16]	0
[17]	0
[18]	0
[19]	0

C[C@@H](Oc1cc(-c2cnn(C3CCNCC3)c2)cnc1N)c1c(Cl)ccc(F)c1Cl [Crizotinib]
normalised viability [%]
Details	3 nM	10 nM	30 nM	100 nM	1000 nM	10000 nM
[1]	–	94.2	–	–	93.3	10.3
[2]	–	87.8	–	–	96.1	42.5
[3]	91.8	–	94.1	100	–	–
[4]	–	107	–	–	107	30.1
[5]	–	97.2	–	–	110	5.81
[6]	–	90.3	–	–	83.4	9.87
[7]	95.2	–	81.3	87.6	–	–
[8]	–	89.8	–	–	63.5	0.88
[9]	–	71.3	–	–	17.1	8.24
[10]	94.9	–	98.8	96.2	–	–
[11]	–	102	–	–	103	34

Details	drug sensitivity score
[12]	5.02
[13]	2.67
[14]	1.89
[15]	4.74
[16]	4.22
[17]	4.08
[18]	14.8
[19]	3.43

CN(C)/N=N/c1[nH]cnc1C(N)=O [Dacarbazine]
normalised viability [%]
Details	3 nM	10 nM	30 nM	100 nM	1000 nM	10000 nM
[1]	–	126	–	–	122	119
[2]	–	76.3	–	–	106	84.2
[3]	84.4	–	96	99.2	–	–
[4]	–	103	–	–	89.2	106
[5]	–	104	–	–	95.3	100
[6]	–	88.2	–	–	83.8	79.5
[7]	103	–	102	102	–	–
[8]	–	101	–	–	89.3	99
[9]	–	100	–	–	78.7	93.8
[10]	90.4	–	89.6	92.4	–	–
[11]	–	119	–	–	113	94.8

Details	drug sensitivity score
[12]	0
[13]	0
[14]	0
[15]	0
[16]	0
[17]	0
[18]	0
[19]	0

O=C1CCC(N2C(=O)c3ccccc3C2=O)C(=O)N1 (stereo unspecified) [Thalidomide]
normalised viability [%]
Details	3 nM	10 nM	30 nM	100 nM	1000 nM	10000 nM
[1]	–	110	–	–	110	108
[2]	–	109	–	–	102	107
[3]	115	–	116	116	–	–
[4]	–	76.7	–	–	91.5	81.7
[5]	–	97.9	–	–	112	109
[6]	–	111	–	–	106	96.8
[7]	99	–	99.3	89.7	–	–
[8]	–	97.2	–	–	109	124
[9]	–	106	–	–	87	96.8
[10]	98.9	–	99.7	109	–	–
[11]	–	97.8	–	–	108	106

Details	drug sensitivity score
[12]	0
[13]	0
[14]	0
[15]	0
[16]	0
[17]	0
[18]	0
[19]	0
